Values quoted from earlier work in patent US20070166321A1, “Compositions and Methods for Reducing Cholesterol and Inflammation” (priority 2006, published 2007).
Entries after “also recorded” stand apart in the source; their conditions may differ.

What was measured:
[1] = in vivo
[2] = not given; remark: listed apart in the source
[3] = tested on: 12-O-tetradecanoylphorbol-13 acetate (TPA) induced inflammation; conditions: for 50%-inflammation reduction index ID50: TPA-induced inflammation

Compound	increase of cardiovascular disease [1]	solubility in water	effect on glucose levels of non-diabetics [2]	50%-inflammation reduction index ID50 [3]	inhibition of TPA induced inflammation, potency comparison ([3]; compared with reference antiinflammatory drugs)
CS(=O)(=O)c1ccc(C2=C(c3ccccc3)C(=O)OC2)cc1 [Vioxx]	~4 fold	–	–	–	–
C[C@H]1[C@H](C)CC[C@]2(C(=O)O)CC[C@]3(C)C(=CC[C@@H]4[C@@]5(C)C[C@@H](O)[C@H](O)C(C)(C)[C@@H]5CC[C@]43C)[C@H]12 [corosolic acid]	–	low solubility in water	does not significantly reduce glucose levels	0.03 mg	potency similar to the antiinflammatory drug indomethasin; also recorded: potency similar to the antiinflammatory drugs indomethasin and hydrocortisone
C[C@]12CCC(=O)C=C1CC[C@@H]1[C@@H]2[C@@H](O)C[C@@]2(C)[C@H]1CC[C@]2(O)C(=O)CO [hydrocortisone]	–	–	–	0.03 mg	–
COc1ccc2c(c1)c(CC(=O)O)c(C)n2C(=O)c1ccc(Cl)cc1 [indomethacin]	–	–	–	0.3 mg	–
